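48-hour exposure; five concentrations; linearly interpolated endpoints. TGI marks complete inhibition of growth.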
Legend:
Experiment in all cases: NCI tumour cell line growth inhibition, 48 h
TK-10 renal = system: TK-10 renal
DMS 273 small cell lung = system: DMS 273 small cell lung
U251 CNS = system: U251 CNS
SK-OV-3 ovarian = system: SK-OV-3 ovarian
SF-268 CNS = system: SF-268 CNS
SN12C renal = system: SN12C renal
MALME-3M melanoma = system: MALME-3M melanoma
EKVX NSCLC = system: EKVX NSCLC
MOLT-4 leukemia = system: MOLT-4 leukemia
SNB-19 CNS = system: SNB-19 CNS
HL-60(TB) leukemia = system: HL-60(TB) leukemia
COLO 205 colon = system: COLO 205 colon
HCC-2998 colon = system: HCC-2998 colon
UACC-257 melanoma = system: UACC-257 melanoma
NCI-H23 lung = system: NCI-H23 lung
SW-620 colon = system: SW-620 colon
SF-295 CNS = system: SF-295 CNS
HCT-116 colon = system: HCT-116 colon
SK-MEL-5 melanoma = system: SK-MEL-5 melanoma
KM12 colon = system: KM12 colon
DMS 114 small cell lung = system: DMS 114 small cell lung
M14 melanoma = system: M14 melanoma
A498 renal = system: A498 renal
RXF 393 renal = system: RXF 393 renal
CAKI-1 renal = system: CAKI-1 renal
OVCAR-3 ovarian = system: OVCAR-3 ovarian
HCT-15 colon = system: HCT-15 colon
UO-31 renal = system: UO-31 renal
LXFL 529 NSCLC = system: LXFL 529 NSCLC
K-562 leukemia = system: K-562 leukemia
NCI-H460 lung = system: NCI-H460 lung
DLD-1 colon = system: DLD-1 colon
CCRF-CEM leukemia = system: CCRF-CEM leukemia
OVCAR-8 ovarian = system: OVCAR-8 ovarian
HOP-92 NSCLC = system: HOP-92 NSCLC
OVCAR-5 ovarian = system: OVCAR-5 ovarian
HOP-18 NSCLC = system: HOP-18 NSCLC
IGROV1 ovarian = system: IGROV1 ovarian
SNB-75 CNS = system: SNB-75 CNS
A549 NSCLC = system: A549 NSCLC
SK-MEL-2 melanoma = system: SK-MEL-2 melanoma
LOX IMVI melanoma = system: LOX IMVI melanoma
ACHN renal = system: ACHN renal
SF-539 CNS = system: SF-539 CNS
UACC-62 melanoma = system: UACC-62 melanoma
RPMI-8226 leukemia = system: RPMI-8226 leukemia
SK-MEL-28 melanoma = system: SK-MEL-28 melanoma
SNB-78 CNS = system: SNB-78 CNS
KM20L2 colon = system: KM20L2 colon
HOP-62 NSCLC = system: HOP-62 NSCLC
OVCAR-4 ovarian = system: OVCAR-4 ovarian
NCI-H522 lung = system: NCI-H522 lung
786-0 renal = system: 786-0 renal
HT29 colon = system: HT29 colon

SMILES: O=C(c1ccccc1)C(c1ccccc1)C1(O)C(=O)Nc2c(Cl)ccc(Cl)c21 (centres undefined)
- TGI (TK-10 renal): > 67.3 µM
- TGI (DMS 273 small cell lung): 42.9 µM
- TGI (U251 CNS): 78.8 µM
- TGI (SK-OV-3 ovarian): > 60.8 µM
- TGI (SF-268 CNS): 54 µM
- TGI (SN12C renal): 31.8 µM
- TGI (MALME-3M melanoma): 31.3 µM
- TGI (EKVX NSCLC): 32.6 µM
- TGI (MOLT-4 leukemia): 49 µM
- TGI (SNB-19 CNS): > 85.6 µM
- TGI (HL-60(TB) leukemia): 38.5 µM
- TGI (COLO 205 colon): 38.5 µM
- TGI (HCC-2998 colon): 77.7 µM
- TGI (UACC-257 melanoma): 29.9 µM
- TGI (NCI-H23 lung): 35.6 µM
- TGI (SW-620 colon): 37.9 µM
- TGI (SF-295 CNS): 31.1 µM
- TGI (HCT-116 colon): 31 µM
- TGI (SK-MEL-5 melanoma): 34.1 µM
- TGI (KM12 colon): 50.5 µM
- TGI (DMS 114 small cell lung): 37.2 µM
- TGI (M14 melanoma): 30.7 µM
- TGI (A498 renal): 64.6 µM
- TGI (RXF 393 renal): 33.8 µM
- TGI (CAKI-1 renal): 39.8 µM
- TGI (OVCAR-3 ovarian): 32.4 µM
- TGI (HCT-15 colon): 36.2 µM
- TGI (UO-31 renal): 39.1 µM
- TGI (LXFL 529 NSCLC): 31.2 µM
- TGI (K-562 leukemia): 35 µM
- TGI (NCI-H460 lung): 56.8 µM
- TGI (DLD-1 colon): 35 µM
- TGI (CCRF-CEM leukemia): 46.6 µM
- TGI (OVCAR-8 ovarian): 44.7 µM
- TGI (HOP-92 NSCLC): 35.4 µM
- TGI (OVCAR-5 ovarian): 35.5 µM
- TGI (HOP-18 NSCLC): 49.3 µM
- TGI (IGROV1 ovarian): 42.7 µM
- TGI (SNB-75 CNS): 39.2 µM
- TGI (A549 NSCLC): > 69.1 µM
- TGI (SK-MEL-2 melanoma): 39.5 µM
- TGI (LOX IMVI melanoma): 28 µM
- TGI (ACHN renal): 31.7 µM
- TGI (SF-539 CNS): 44.5 µM
- TGI (UACC-62 melanoma): 33.8 µM
- TGI (RPMI-8226 leukemia): 40.8 µM
- TGI (SK-MEL-28 melanoma): 34.6 µM
- TGI (SNB-78 CNS): 64 µM
- TGI (KM20L2 colon): > 100 µM
- TGI (HOP-62 NSCLC): 49.8 µM
- TGI (OVCAR-4 ovarian): 13.4 µM
- TGI (NCI-H522 lung): 34.9 µM
- TGI (786-0 renal): 39.9 µM
- TGI (HT29 colon): 47.1 µM

Reference: PubChem BioAssay (NCI)
